Test results taken from patent US7220827B2, “Compound binding to leukocytes and medicinal composition containing the compound in labeled state as the active ingredient” (Nihon Medi-Physics Co., Ltd., priority 2002, dated 2007).

Tested on: human leukocytes (granulocytes; lymphocytes and monocytes)
Test: Distribution of Tc-99m labeled peptides in human blood (Percoll density gradient)
Type: cell-based
Conditions: incubation 30 minutes
Source text: In order to confirm clinical effectiveness of the peptide of the present invention in human, binding affinities to leukocytes of two types of peptides of the present invention were examined by using human blood. The peptide 3 and the peptide 6 labeled with Tc-99m in Example 2 were separated into unlabeled peptides and labeled peptides, and purified by reversed phase HPLC under the same conditions as of HPLC in Example 2. […]
The conventionally known peptides, Tc-99m-peptide 11 and Tc-99m-peptide 12, were prepared. Each of the peptide 11 and the peptide 12 was dissolved in dimethylformamide to prepare a solution having the concentration of 0.1 mg/500 μl. A solution of SnCl2/10 mM hydrochloric acid (5 mg/10 ml) 50 μl was added to a tartaric acid/PBS solution (5 mg/200 μl), and the peptide solution was added thereto. Then ^99mTcO4^− solution (2738 MBq/ml) 0.25 μl was infused immediately thereafter and shaken for several seconds to perform labeling reaction at 120° C. for 10 minutes. Final concentration was about 855.6 MBq/125 mg/ml. Purification and measurement of radiochemical purity were performed by using preparative HPLC. Analysis was performed under the same conditions as in Example 2, i.e. gradient: 20%→50% (0.1% TFA acetonitrile/0.1% TFA water); 0→20 minutes. Radioactivity concentration after the purification was 287–311 MBq/ml.
Subsequently, a Percoll density gradient solution was prepared based on the method described in Example 3.
Blood, 20–30 ml, was collected from adult volunteers, 40 years old or less. The Tc-99m labeled peptides, 30 μl (111 MBq/ml, 1.8×10^−11 mol/ml as Tc-peptide) each, were added thereto and incubated for 30 minutes. The blood sample 2–3 ml was layered over carefully to the prepared Percoll density gradient solution. After centrifugation at 2000 rpm (800×g) for 15 minutes, the tube was frozen and each fraction was cut off by using a cutter, then the radioactivity of each fraction was measured using Auto-Well Gamma Counter to determine the radioactivity distribution of Tc-99m-labeled peptides in the blood components.

Tc-99m-glucoheptonic acid
radioactivity distributed in the plasma fraction: 95.39%
radioactivity distribution in the granulocyte fraction: 1.11 % of the radioactivity in the whole blood
radioactivity distribution in the lymphocyte and monocyte fraction: 2.52 % of the radioactivity in the whole blood
